Measurements taken from article PMC8813803 (Clinical Pharmacokinetics, 2021).

Experiments:
[1] = in words; cited from earlier work
[2] = tested on: liver uptake transporters; assay: Liver uptake transporter substrate status; type: in vitro ADME
[3] = in words; cited from earlier work; remark: listed apart in the source
[4] = in words; cited from earlier work; remark: listed apart in the source
[5] = human, cited from earlier work
[6] = Clinical ADME study NCT03315559; type: in vivo; conditions: human; set from Fg 0.83 of clinical study 206764

## CC(C)N1CCN(Cc2cnc(-c3cc(-c4cccc5[nH]ccc45)cc4[nH]ncc34)o2)CC1 [nemiralisib, Nemiralisib]
[1]
  Rat lung tissue binding: high
[2]
  Substrate of liver uptake transporters: not a substrate
[3]
  Solubility: reasonable
[4]
  Permeability: high
[5]; clinical study 206764 (NCT03315559)
  Fg (fraction escaping gut wall metabolism): 0.83
[5]; intravenous dosing
  Volume of distribution at steady state: approximately 10 L/kg
[5]; oral dose
  tmax (time of maximum plasma concentration): 6 h
[5]
  Oral bioavailability: 35%
[6]
  Intestinal FPE (first-pass extraction): 17%
